Source: paper PMC6414029, “Utilisation of the Prestwick Chemical Library to identify drugs that inhibit the growth of mycobacteria” (PLoS ONE, 2019)
≈ marks a conversion by molar mass, not a printed value. Counter-ions that a name gives are not always drawn. Like-named read-outs stand apart in the source and are kept apart here.

How the values were obtained:
M. smegmatis [1] = test: MIC determination on solid agar; type: cell-based, Mycobacterium smegmatis; settings: read-out: Solid MIC
Procedure: Drugs were diluted from a 10mM stock, mixed individually in 2 mLs of molten 7H10 agar and dispensed in square partitioned petri plates. Plates were incubated at 37°C and solid MIC was determined based on absence of colonies.

M. tuberculosis H37Rv = test: Alamar Blue (resazurin) MIC assay; type: cell-based, Mycobacterium tuberculosis; settings: Mycobacterium tuberculosis, liquid growth media
Procedure: To investigate the effects of repurposed compounds on growth of M. tuberculosis H37Rv using an Alamar Blue based MIC assay using the resazurin reagent. This assay was performed in 7H9 medium containing Middlebrook broth and 0.5% glycerol and supplemented with oleic acid, albumin, dextrose, and catalase. Clear- 96-well plates were inoculated with 100 μL of drug diluted with 90 μl of 7H9 medium and 10 μL DMSO. Serial 3-fold dilutions of each drug in 100 μL of 7H9 medium were prepared at various ranges. Growth controls containing no antibiotic and sterility controls without inoculation were also included. 200 μL of sterile deionized water was added to the outer perimeter wells to prevent evaporation during plate incubation. Plates were incubated plate at 37°C for 3–4 days. After incubation, the plates were removed and 10 μL of resazurin (0.02% w/v) was added to each well that contained bacteria. Assay plates were reincubated at 37°C for 24–48 hours and visually assessed for colour development. OD 570 nm readings were taken to provide further quantitation provide an interpretation of the dose response of the bacterium to repurposed compounds.

M. smegmatis [2] = test: microbe, parasite or virus in culture; type: cell-based, Mycobacterium smegmatis; settings: liquid medium
BCG [3] = test: microbe, parasite or virus in culture; type: cell-based, Mycobacterium bovis BCG; settings: for MIC: Mycobacterium tuberculosis variant bovis BCG, BCG, read-out: Liquid MIC
BCG [4] = type: cell-based, Mycobacterium bovis BCG
M. smegmatis [5] = type: cell-based, Mycobacterium smegmatis; settings: 20 μM compound, 48 hr read, GFP fluorescence
BCG [6] = test: microbe, parasite or virus in culture; type: cell-based, Mycobacterium bovis BCG; settings: for MIC: Mycobacterium tuberculosis variant bovis BCG
HepG2 cells = test: HepG2 cytotoxicity assay (CellTitre-Glo); type: cell-based; settings: Homo sapiens, HepG2, 48 hours
Procedure: Actively growing HepG2 cells were removed from a T-175 tissue culture flask with 5 mL of Eagle’s MEM containing 10% FBS/1%NEAA/1% Penicillin and Streptomycin) and mixed with gentle pipetting. […] The cell suspension was added to 250 mL of the same medium at a final density of […]. […] Plates were allowed to incubate at 37°C at a relative humidity of 80% and 5% CO2 for 48 hours. After incubation, the plates were allowed to equilibrate at room temperature for 30 mins before 25 μL of CellTitre-Glo (Promega) reagent was added to each well using a multichannel pipette. Plates were left at room temperature for 30 mins before relative luminescence was read using a BMG Labtech POLARstar Omega plate reader.

[7] = Mycolicibacterium smegmatis, M. smegmatis, 7H10 solid agar, absence of colonies
[8] = read-out: Solid MIC, BCG, 7H10 solid agar, absence of colonies
[9] = read-out: Solid MIC, BCG, solid agar, values given in mM

Q: What does the source list for `CCN(CC)CCOc1ccc(C(=C(Cl)c2ccccc2)c2ccccc2)cc1` [Clomiphene citrate]?
A: MIC (M. smegmatis [1]; [7]): 37.5 µM; MIC (M. tuberculosis H37Rv): 7.59 µM; MIC (M. smegmatis [2]; Mycolicibacterium smegmatis): 9.03 to 26.6 µM; MIC (M. smegmatis [2]): 9.03 µM

Q: Which results are given for `Cc1cnc(C(=O)NCCc2ccc(S(=O)(=O)NC(=O)NC3CCCCC3)cc2)cn1` [Glipizide]?
A: Liquid MIC (BCG [3]): 191.10 µM; MIC (BCG [3]): 191 µM (≈ 85.1 µg/mL)

Q: Which results are given for `CN(C)CCOc1ccc(/C(=C(/CCCl)c2ccccc2)c2ccccc2)cc1` [Toremifene]?
A: MIC (M. smegmatis [1]; [7]): 62.5 µM (≈ 25.4 µg/mL); MIC (M. smegmatis [2]): 23.76 µM (≈ 9.65 µg/mL)

Q: With `C=C1c2c(Cl)ccc(O)c2C(=O)C2=C(O)[C@]3(O)C(=O)C(C(N)=O)=C(O)[C@@H](N(C)C)[C@@H]3[C@@H](O)[C@H]12` [Meclocyline sulfosalicylate, meclocycline sulfosalicylate] as the compound, how does the MIC (M. smegmatis [1]; M. smegmatis, 7H10 solid agar, absence of colonies) read?
A: 0.20 µM (≈ 0.0954 µg/mL)

Q: What about the MIC (M. smegmatis [1]; Mycolicibacterium smegmatis) of the same compound?
A: 0.2 µM (≈ 0.0954 µg/mL)

Q: What about the MIC (M. smegmatis [2]; Mycolicibacterium smegmatis) of the same compound?
A: 0.1 µM (≈ 0.0477 µg/mL)

Q: How did the MIC (BCG [3]) turn out when `CC(C)(N)Cc1ccccc1` [Phenteramine, Phentermine] was run?
A: 375 µM (≈ 56 µg/mL)

Q: What does the source list for `NNC(=O)c1ccncc1` [isoniazid]?
A: % survival (BCG [4]): < 25%; % survival (M. smegmatis [5]): < 25%

Q: For `CO[C@@H]1[C@@H](O[C@@H]2O[C@H](C)[C@@H](O[C@H]3C[C@@](C)(O)[C@@H](OC(=O)CC(C)C)[C@H](C)O3)[C@H](N(C)C)[C@H]2O)[C@@H](CC=O)C[C@@H](C)[C@@H](O)/C=C/C=C/C[C@@H](C)OC(=O)C[C@H]1OC(C)=O` [Josamycin], which MIC (BCG [6]; [8]) is on record?
A: > 0.1 mM

Q: What about the “Liquid MIC” value (BCG [3]) of the same compound?
A: 0.10 µM

Q: And the MIC (BCG [3])?
A: 0.1 µM (≈ 0.0828 µg/mL)

Q: Which MIC (M. smegmatis [1]; [7]) does the source give for `COC(=O)C1=C(C)NC(C)=C(C(=O)OCC(C)C)C1c1ccccc1[N+](=O)[O-]` (centres unmarked) [Nisoldipine] here?
A: 100 µM (≈ 38.8 µg/mL)

Q: What about the MIC (M. smegmatis [2]) of the same compound?
A: 396.2 µM (≈ 154 µg/mL)

Q: `N=C(N)c1ccc(OCCCCCOc2ccc(C(=N)N)cc2)cc1` [Pentamidine] was tested. Which MIC (BCG [6]; [8]) did it give?
A: 0.05 mM (≈ 17 µg/mL)

Q: What about the MIC (BCG [6]; [9]) of the same compound?
A: ~0.05 mM (≈ 17 µg/mL)

Q: And the MIC (BCG [3])?
A: 3.23 µM (≈ 1.1 µg/mL)

Q: And the IC50 (HepG2 cells)?
A: 3.5 µM

Q: What about the MIC (M. tuberculosis H37Rv) of the same compound?
A: 10.5 µM (≈ 3.58 µg/mL)

Q: With `CN(CCOc1ccc(CC2SC(=O)NC2=O)cc1)c1ccccn1` (centres unmarked) [Rosiglitazone] as the compound, how does the MIC (BCG [6]; [8]) read?
A: ≥ 1.5 mM

Q: And the MIC (BCG [6]; [9])?
A: ~1.5 mM (≈ 536 µg/mL)

Q: What about the MIC (BCG [3]) of the same compound?
A: 43.1 µM (≈ 15.4 µg/mL)

Q: `CN1CCc2cccc3c2[C@H]1Cc1ccc(O)c(O)c1-3` [Apomorphine] was tested. Which MIC (M. smegmatis [1]; [7]) did it give?
A: 625 µM (≈ 167 µg/mL)

Q: And the MIC (M. smegmatis [2])?
A: 241.7 µM (≈ 64.6 µg/mL)

Q: `CO[C@H]1/C=C/O[C@@]2(C)Oc3c(C)c(O)c4c(O)c(c(/C=N/N5CCN(C)CC5)c(O)c4c3C2=O)NC(=O)/C(C)=C\C=C\[C@H](C)[C@H](O)[C@@H](C)[C@@H](O)[C@@H](C)[C@H](OC(C)=O)[C@@H]1C` [rifampicin] was tested. Which “% survival” value (BCG [4]) did it give?
A: < 25%

Q: What about the “% survival” value (M. smegmatis [5]) of the same compound?
A: < 25%

Q: With `CCCCC(CC)CNC(=N)NC(=N)NCCCCCCNC(=N)NC(=N)NCC(CC)CCCC` (centres unmarked) [Alexidine] as the compound, how does the MIC (M. smegmatis [2]; Mycolicibacterium smegmatis) read?
A: 6.15 µM (≈ 3.13 µg/mL)

Q: Which MIC (BCG [6]; [8]) does the source give for `CN1C2CCCC1CC(NC(=O)c1nn(C)c3ccccc13)C2` (centres unmarked) [Granisteron, Granisetron] here?
A: ≥ 0.5 mM

Q: And the MIC (BCG [6]; [9])?
A: > 0.5 mM

Q: And the “Liquid MIC” value (BCG [3])?
A: 210.60 µM

Q: What about the MIC (BCG [3]) of the same compound?
A: 211 µM (≈ 65.8 µg/mL)

Q: For `CN(C)CCN(Cc1ccccc1)c1ccccn1` [Tripelennamine], which “Solid MIC relative to liquid MIC” value (BCG [6]) is on record?
A: 2 fold

Q: What about the MIC (BCG [6]; [8]) of the same compound?
A: 0.1 mM (≈ 25.5 µg/mL)

Q: What about the MIC (BCG [6]; [9]) of the same compound?
A: 0.1 mM (≈ 25.5 µg/mL)

Q: What about the MIC (BCG [3]) of the same compound?
A: 41.9 µM (≈ 10.7 µg/mL)

Q: What about the IC50 (HepG2 cells) of the same compound?
A: > 250 µM

Q: What about the MIC (M. tuberculosis H37Rv) of the same compound?
A: 49.3 µM (≈ 12.6 µg/mL)

Q: How did the “% survival” value (BCG [4]) turn out when `[H]/N=C(/N)N[C@H]1[C@H](O)[C@@H](O)[C@H](O[C@@H]2O[C@@H](C)[C@](O)(C=O)[C@H]2O[C@@H]2O[C@@H](CO)[C@H](O)[C@@H](O)[C@@H]2NC)[C@@H](N/C(N)=N\[H])[C@@H]1O` [streptomycin] was run?
A: < 25%

Q: What about the “% survival” value (M. smegmatis [5]) of the same compound?
A: < 25%
